Reference: the NIST ThermoML archive (doi:10.1016/j.tca.2014.03.027)
± gives the expanded uncertainty stated by the source.

What was measured:
[1] = molar heat capacity at constant pressure; conditions: 298.15 K; 101.33 kPa; Liquid; Small sample (50 mg) DSC
[2] = xn = mol fraction of the nth substance listed; conditions: 101 kPa, Liquid, Small sample (50 mg) DSC
[3] = 298.15 K; 101.33 kPa; Liquid; Vibrating tube method

CCCO [propan-1-ol]
Conditions	molar heat capacity at constant pressure [J/K/mol]
[1]	143.41 ± 2.9

CCCCCO [pentan-1-ol]
Conditions	molar heat capacity at constant pressure [J/K/mol]
[1]	206.67 ± 4.1

NCc1ccccc1 [benzylamine] + CCCCCCC
[2], 293.15 K
Conditions	excess molar heat capacity [J/K/mol]
x1 = 0.1982	0.78 ± 0.17
x1 = 0.2473	1.66 ± 0.18
x1 = 0.2989	3.35 ± 0.25
x1 = 0.3496	4.17 ± 0.29
x1 = 0.3734	4.88 ± 0.32
x1 = 0.3986	5.87 ± 0.37
x1 = 0.4976	6.51 ± 0.4
x1 = 0.5988	5.47 ± 0.35
x1 = 0.6983	3.47 ± 0.26
x1 = 0.7991	1.46 ± 0.18

NCc1ccccc1 [benzylamine] + CCCO
excess molar heat capacity [J/K/mol], [2]
Conditions	293.15 K	298.15 K	308.15 K
x2 = 0.0665	1.89 ± 0.19	2.55 ± 0.22	2.84 ± 0.23
x2 = 0.1004	2.96 ± 0.24	3.37 ± 0.25	3.45 ± 0.26
x2 = 0.1986	6.26 ± 0.39	6.74 ± 0.41	6.5 ± 0.4
x2 = 0.2994	9.38 ± 0.54	9.67 ± 0.56	9.53 ± 0.55
x2 = 0.4007	11.35 ± 0.64	11.45 ± 0.65	11.18 ± 0.63
x2 = 0.4477	11.83 ± 0.67	11.95 ± 0.67	11.58 ± 0.65
x2 = 0.5497	13.34 ± 0.74	13.25 ± 0.74	12.85 ± 0.72
x2 = 0.6032	13.04 ± 0.73	12.99 ± 0.73	12.57 ± 0.7
x2 = 0.6515	12.75 ± 0.71	12.91 ± 0.72	12.84 ± 0.72
x2 = 0.6998	12.05 ± 0.68	12.14 ± 0.68	11.7 ± 0.66
x2 = 0.8014	9.42 ± 0.55	9.48 ± 0.55	9.06 ± 0.53
x2 = 0.849	7.29 ± 0.44	7.32 ± 0.44	7.22 ± 0.44
x2 = 0.9003	4.9 ± 0.32	5.05 ± 0.33	4.75 ± 0.32

NCc1ccccc1 [benzylamine]
Conditions	mass density [kg/m3]	molar heat capacity at constant pressure [J/K/mol]
[1]	–	206.74 ± 4.1
[3]	978.337 ± 0.23	–

CCCCCCC [heptane]
Conditions	molar heat capacity at constant pressure [J/K/mol]
[1]	223.91 ± 4.5

CO [methanol]
Conditions	molar heat capacity at constant pressure [J/K/mol]
[1]	80.81 ± 1.6
